According to US8163737B2 (Vertex Pharmaceuticals Incorporated, priority 2006, dated 2012):

Target: endogenous CGRP receptor (Homo sapiens, UniProt O60894+Q16602)
Experiment: CGRP functional antagonism using SK-N-MC-BLA (4C10), β-lactamase transcriptional reporter assay
Format: cell-based
Conditions: SK-N-MC (4C10) cells, inhibition of β-lactamase expression in the presence of 200 pM CGRP

endogenous CGRP receptor, sequence (Q16602 23-461): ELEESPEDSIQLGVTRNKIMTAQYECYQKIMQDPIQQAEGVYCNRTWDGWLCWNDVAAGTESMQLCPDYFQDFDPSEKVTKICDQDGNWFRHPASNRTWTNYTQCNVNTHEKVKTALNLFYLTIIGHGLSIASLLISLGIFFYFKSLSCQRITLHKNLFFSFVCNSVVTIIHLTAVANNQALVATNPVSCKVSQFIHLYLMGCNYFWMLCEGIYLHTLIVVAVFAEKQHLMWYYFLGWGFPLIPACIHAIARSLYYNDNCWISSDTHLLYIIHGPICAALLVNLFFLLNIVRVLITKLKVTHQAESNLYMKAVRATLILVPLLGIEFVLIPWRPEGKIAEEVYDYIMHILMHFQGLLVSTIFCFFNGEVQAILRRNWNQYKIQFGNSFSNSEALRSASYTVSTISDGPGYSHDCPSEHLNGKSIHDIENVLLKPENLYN
endogenous CGRP receptor, sequence (O60894 27-148): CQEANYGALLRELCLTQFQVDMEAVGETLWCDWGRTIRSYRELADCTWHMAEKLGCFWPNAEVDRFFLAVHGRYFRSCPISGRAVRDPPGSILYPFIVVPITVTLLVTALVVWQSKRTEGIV

`CN1CCC(N2CCN(c3ccccc3C3SC(CC(=O)N4CCC(N5CCc6ccccc6NC5=O)CC4)C(=O)N3CCC(C)(C)C)CC2)CC1` (stereo not drawn) [Compound 379] was tested, and the IC50 was under 1000 nM.

`CN1CCC(N2CCN(c3ccccc3C3SC(CC(=O)N4CCC(n5c(=O)[nH]c6ncccc65)CC4)C(=O)N3CCC(C)(C)C)CC2)CC1` (stereo not drawn) [Compound 381] was tested, and the IC50 was over 5000 nM.

`CN(C)CCCN(C)c1ccccc1C1SC(CC(=O)N2CCC(n3c(=O)[nH]c4ncccc43)CC2)C(=O)N1CCC(C)(C)C` (stereo not drawn) [Compound 382] gave an IC50 of under 1000 nM.

Work on `CN(C)CCN(C)c1ccccc1C1SC(CC(=O)N2CCC(N3CCc4ccccc4NC3=O)CC2)C(=O)N1CCC(C)(C)C` (stereo not drawn) [Compound 383] yielded an IC50 of 1000 to 5000 nM.

For `CC(C)(C)CCN1C(=O)C(CC(=O)N2CCC(N3CCc4ccccc4NC3=O)CC2)SC1c1ccccc1N1CCC(N2CCCCC2)CC1` (stereo not drawn) [Compound 384], the IC50 was over 5000 nM.

For `CN(C)CCCN(C)c1ccccc1C1SC(CC(=O)N2CCC(N3CCc4ccccc4NC3=O)CC2)C(=O)N1CCC(C)(C)C` (stereo not drawn) [Compound 385], the IC50 was 1000 to 5000 nM.

Molecule `CC(C)(C)CCN1C(=O)C(CC(=O)N2CCC(n3c(=O)[nH]c4ncccc43)CC2)SC1c1ccccc1N1CCC(N2CCCCC2)CC1` (stereo not drawn) [Compound 387] has an IC50 of under 1000 nM.

Molecule `CN1CCN(c2ccccc2[C@@H]2S[C@H](CC(=O)N3CCC(N4CCc5ccccc5NC4=O)CC3)C(=O)N2CCC(C)(C)C)CC1` [Compound 388] has an IC50 of over 5000 nM.

Work on `CC(C)(C)CCN1C(=O)C(CC(=O)N2CCC(n3c(=O)[nH]c4ncccc43)CC2)SC1c1cccc(F)c1N1CCN(C2CC2)CC1` (stereo not drawn) [Compound 390] yielded an IC50 of over 5000 nM.

Molecule `CC(C)(C)CCN1C(=O)C(CC(=O)N2CCC(N3CCc4ccccc4NC3=O)CC2)SC1c1cccc(F)c1N1CCN(CC(F)(F)F)CC1` (stereo not drawn) [Compound 392] has an IC50 of over 5000 nM.

Molecule `CC(C)(C)CCN1C(=O)C(CC(=O)N2CCC(n3c(=O)[nH]c4ncccc43)CC2)SC1c1cccc(F)c1N1CCN(CC(F)(F)F)CC1` (stereo not drawn) [Compound 393] has an IC50 of under 1000 nM.

`CC(C)N1CCN(c2c(F)cccc2[C@@H]2S[C@@H](CC(=O)N3CCC(N4CCc5ccccc5NC4=O)CC3)C(=O)N2CCC(C)(C)C)CC1` [Compound 395] showed an IC50 of over 5000 nM.

Work on `CC(C)N1CCN(c2c(F)cccc2[C@H]2S[C@@H](CC(=O)N3CCC(N4CCc5ccccc5NC4=O)CC3)C(=O)N2CCC(C)(C)C)CC1` [Compound 396] yielded an IC50 of 1000 to 5000 nM.

Work on `CC(C)(C)CCN1C(=O)[C@H](CC(=O)N2CCC(N3CCc4ccccc4NC3=O)CC2)SC1c1cccc(F)c1N1CCNCC1` (stereo partly drawn) [Compound 398] yielded an IC50 of over 5000 nM.

For `CC(C)(C)CCN1C(=O)[C@H](CC(=O)N2CCC(N3CCc4ccccc4NC3=O)CC2)SC1c1cccc(F)c1N1CCNCC1` (stereo partly drawn) [Compound 399], the IC50 was over 5000 nM.

`CN(C)[C@H]1CCN(c2ccccc2C2SC(CC(=O)N3CCC(n4c(=O)[nH]c5ncccc54)CC3)C(=O)N2CCC(C)(C)C)C1` (stereo partly drawn) [Compound 404] was tested, and the IC50 was 1000 to 5000 nM.

Work on `CN(c1ccccc1C1SC(CC(=O)N2CCC(n3c(=O)[nH]c4ncccc43)CC2)C(=O)N1CCC(C)(C)C)[C@@H]1CCN(Cc2ccccc2)C1` (stereo partly drawn) [Compound 408] yielded an IC50 of under 1000 nM.

Work on `CN1CCN(c2ccccc2C2SC(CC(=O)N3CCC(N4CCc5ccccc5NC4=O)CC3)C(=O)N2CC(C)(C)C)CC1` (stereo not drawn) [Compound 410] yielded an IC50 of under 1000 nM.

Molecule `CC(C)(C)CCN1C(=O)C(CC(=O)N2CCC(N3CCc4ccccc4NC3=O)CC2)SC1c1cccc(F)c1N1CC(F)(C2CC2)C1` (stereo not drawn) [Compound 411] has an IC50 of 1000 to 5000 nM.

With `CN1CCN(c2cccc(C3SC(CC(=O)N4CCC(N5CCc6ccccc6NC5=O)CC4)C(=O)N3CCC(C)(C)C)c2)CC1` (stereo not drawn) [Compound 412] the IC50 was under 1000 nM.

In the case of `CN1CCN(c2cccc(C3SC(CC(=O)N4CCC(n5c(=O)[nH]c6ncccc65)CC4)C(=O)N3CCC(C)(C)C)c2)CC1` (stereo not drawn) [Compound 413], the IC50 is reported as under 1000 nM.

Molecule `CC(C)(C)CC1SC(CC(=O)N2CCC(n3c(=O)[nH]c4ncccc43)CC2)C(=O)N1c1ccccc1` (stereo not drawn) [Compound 417] has an IC50 of 1000 to 5000 nM.

Molecule `CN(C)C1CCN(c2ccccc2C2SC(CC(=O)N3CCC(n4c(=O)[nH]c5ncccc54)CC3)C(=O)N2CCC(C)(C)C)CC1` (stereo not drawn) [Compound 418] has an IC50 of over 5000 nM.

With `CN(C)C1CCN(c2ccccc2C2SC(CC(=O)N3CCC(N4CCc5ccccc5NC4=O)CC3)C(=O)N2CCC(C)(C)C)CC1` (stereo not drawn) [Compound 419] the IC50 was 1000 to 5000 nM.

`O=C(CC1SC(C2CCOCC2)N(c2ccccc2)C1=O)N1CCC(N2CCc3ccccc3NC2=O)CC1` (stereo not drawn) [Compound 420] showed an IC50 of over 5000 nM.

With `O=C(CC1SC(C2CCCCC2)N(c2ccc(N3CCOCC3)cc2)C1=O)N1CCC(N2CCc3ccccc3NC2=O)CC1` (stereo not drawn) [Compound 421] the IC50 was under 1000 nM.

With `O=C(CC1SC(C2CCOCC2)N(c2ccc(N3CCOCC3)cc2)C1=O)N1CCC(N2CCc3ccccc3NC2=O)CC1` (stereo not drawn) [Compound 422] the IC50 was under 1000 nM.

For `CC(C)(C)CC1SC(CC(=O)N2CCC(N3CCc4ccccc4NC3=O)CC2)C(=O)N1c1ccc(N2CCOCC2)cc1` (stereo not drawn) [Compound 423], the IC50 was under 1000 nM.

Work on `O=C(CC1SC(C2CCCCC2)N(c2ccccc2)C1=O)N1CCC(n2c(=O)[nH]c3ncccc32)CC1` (stereo not drawn) [Compound 424] yielded an IC50 of under 1000 nM.

With `O=C(CC1SC(C2CCCCC2)N(c2ccc(N3CCOCC3)cc2)C1=O)N1CCC(n2c(=O)[nH]c3ncccc32)CC1` (stereo not drawn) [Compound 425] the IC50 was under 1000 nM.

Work on `O=C(CC1SC(C2CCOCC2)N(c2ccc(N3CCOCC3)cc2)C1=O)N1CCC(n2c(=O)[nH]c3ncccc32)CC1` (stereo not drawn) [Compound 426] yielded an IC50 of 1000 to 5000 nM.

With `CC(C)(C)CC1SC(CC(=O)N2CCC(n3c(=O)[nH]c4ncccc43)CC2)C(=O)N1c1ccccc1N1CCCCC1` (stereo not drawn) [Compound 428] the IC50 was over 5000 nM.

In the case of `CC(C)N1CCN(c2c(F)cccc2[C@@H]2S[C@](C)(CC(=O)N3CCC(N4CCc5ccccc5NC4=O)CC3)C(=O)N2CCC(C)(C)C)CC1` [Compound 430], the IC50 is reported as over 5000 nM.

`CC(C)N1CCN(c2cccc(Cl)c2C2S[C@H](CC(=O)N3CCC(N4CCc5ccccc5NC4=O)CC3)C(=O)N2CCC(C)(C)C)CC1` (stereo partly drawn) [Compound 433] showed an IC50 of over 5000 nM.

With `CC(C)N1CCN(c2cccc(Cl)c2C2S[C@@H](CC(=O)N3CCC(n4c(=O)[nH]c5ncccc54)CC3)C(=O)N2CCC(C)(C)C)CC1` (stereo partly drawn) [Compound 438] the IC50 was under 1000 nM.

With `CC(C)(C)CCN1C(=O)[C@H](CC(=O)N2CCC(N3CCc4ccccc4NC3=O)CC2)SC1c1cccc(F)c1N1CCC(N2CCCCC2)CC1` (stereo partly drawn) [Compound 439] the IC50 was under 1000 nM.

`CC(C)(C)CCN1C(=O)[C@H](CC(=O)N2CCC(n3c(=O)[nH]c4ncccc43)CC2)S[C@H]1c1cccc(F)c1N1CCC(N2CCCCC2)CC1` [Compound 441] gave an IC50 of under 1000 nM.

For `CC(C)N1CCN(c2ncccc2C2S[C@@H](CC(=O)N3CCC(n4c(=O)[nH]c5ncccc54)CC3)C(=O)N2CCC(C)(C)C)CC1` (stereo partly drawn) [Compound 443], the IC50 was under 1000 nM.

`CC(C)N1CCN(c2ncccc2C2S[C@@H](CC(=O)N3CCC(N4CCc5ccccc5NC4=O)CC3)C(=O)N2CCC(C)(C)C)CC1` (stereo partly drawn) [Compound 444] gave an IC50 of over 5000 nM.

With `CC(C)N1CCN(c2c(F)cccc2C2S[C@@](C)(CC(=O)N3CCC(n4c(=O)[nH]c5ncccc54)CC3)C(=O)N2CCC(C)(C)C)CC1` (stereo partly drawn) [Compound 445] the IC50 was 1000 to 5000 nM.

`CC(C)(C)CCN1C(=O)C(CC(=O)N2CCC(Nc3ccc(Cl)cc3)CC2)SC1c1cccc(F)c1N1CCN(C(C)(C)C)CC1` (stereo not drawn) [Compound 448] was tested, and the IC50 was under 1000 nM.

Work on `CC(C)(C)CCN1C(=O)[C@H](CC(=O)N2CCC(n3nnc4ccccc43)CC2)SC1c1cccc(F)c1N1CCN(C(C)(C)C)CC1` (stereo partly drawn) [Compound 451] yielded an IC50 of 1000 to 5000 nM.

In the case of `CC(C)(C)CCN1C(=O)[C@H](CC(=O)N2CCC(O)(c3ccc(F)cc3)CC2)S[C@@H]1c1cccc(F)c1N1CCN(C(C)(C)C)CC1` [Compound 453], the IC50 is reported as under 1000 nM.

Work on `CC(C)(C)CCN1C(=O)[C@H](CC(=O)N2CCC(O)(c3ccc(F)cc3)CC2)SC1c1cccc(F)c1N1CCN(C(C)(C)C)CC1` (stereo partly drawn) [Compound 454] yielded an IC50 of over 5000 nM.

In the case of `CN(C)C1CCN(c2c(F)cccc2[C@H]2S[C@@H](CC(=O)N3CCC(n4c(=O)[nH]c5ncccc54)CC3)C(=O)N2CCC(C)(C)C)C1` (stereo partly drawn) [Compound 455], the IC50 is reported as 1000 to 5000 nM.

For `CC(C)(C)CCN1C(=O)[C@H](CC(=O)N2CCC(n3c(=O)[nH]c4ncccc43)CC2)S[C@H]1c1cccc(F)c1N1CCC(N)C1` (stereo partly drawn) [Compound 465], the IC50 was 1000 to 5000 nM.

`CC(C)(C)CCN1C(=O)[C@H](CC(=O)N2CCC(N3CCc4ccccc4NC3=O)CC2)SC1c1cccc(F)c1N1CCC(N)C1` (stereo partly drawn) [Compound 466] was tested, and the IC50 was under 1000 nM.

`CC(C)(C)CCN1C(=O)[C@H](CC(=O)N2CCC(N3Cc4ccccc4NC3=O)CC2)SC1c1cccc(F)c1N1CCC(N)C1` (stereo partly drawn) [Compound 467] showed an IC50 of 1000 to 5000 nM.

In the case of `CC(C)(C)CCN1C(=O)[C@H](CC(=O)N2CCC(n3c(=O)[nH]c4ncccc43)CC2)S[C@H]1c1cccc(F)c1N1CCC(O)C1` (stereo partly drawn) [Compound 468], the IC50 is reported as under 1000 nM.

For `CC(C)(C)CCN1C(=O)[C@H](CC(=O)N2CCC(N3Cc4ccccc4NC3=O)CC2)S[C@H]1c1cccc(F)c1N1CCC(N)C1` (stereo partly drawn) [Compound 472], the IC50 was under 1000 nM.

`C[C@@H]1CN(c2c(F)cccc2[C@@H]2S[C@@H](CC(=O)N3CCC(N4CCc5ccccc5NC4=O)CC3)C(=O)N2CCC(C)(C)C)C[C@H](C)N1` [Compound 476] was tested, and the IC50 was over 5000 nM.

`CCCN1C(=O)[C@H](CC(=O)N2CCC(N3CCc4ccccc4NC3=O)CC2)SC1c1cccc(F)c1N1CCN(C(C)(C)C)CC1` (stereo partly drawn) [Compound 536] gave an IC50 of under 1000 nM.

With `CCCN1C(=O)[C@H](CC(=O)N2CCC(N3CCc4ccccc4NC3=O)CC2)SC1c1cccc(F)c1N1CCN(C(C)(C)C)CC1` (stereo partly drawn) [Compound 537] the IC50 was under 1000 nM.

In the case of `CC(C)(C)CCN1C(=O)[C@H](CC(=O)N2CCC(n3c(=O)[nH]c4ncccc43)CC2)S[C@H]1c1cccc(F)c1N1CCNCC1` [Compound 546], the IC50 is reported as under 1000 nM.
